Experimental data as given in US6794398B1, “Preventive/remedies for liver diseases” (Mitsubishi Pharma Corporation, priority 1999, dated 2004).

How the values were obtained:
[1] = test system: rat with hepatic fibrosis induced by dimethylnitrosamine; assay: Effect on rat with hepatic fibrosis induced by dimethylnitrosamine; assay type: in vivo; settings: 30 mg/kg orally every day for 4 weeks, male Wistar rats, liver, 5 rats
Method: 1% Dimethylnitrosamine (100 μl/100 g rat body weight) was intraperitoneally administered to male Wistar rats for 3 consecutive days per week for 4 weeks (12 times in total) to prepare a hepatic fibrosis model rat. To the Y-27632 administration group, Y-27632 (30 mg/kg) was orally administered every day for 4 weeks from the day when the dimethylnitrosamine administration was started. To the control group, physiological saline was administered. Four weeks later, the liver was removed and the level of fibrogenesis of the tissue, collagen content and hydroxyproline amount were measured.
The level of fibrogenesis was measured as follows. A part of the removed liver was fixed with a formalin solution overnight, and a paraffin embedded piece was prepared and stained by Masson trichrome stain. The stained images were input in a computer through a digital camera (Fujix HC-1000, Fuji Film, Tokyo, Japan) and, using a computer-assisted morphometric analyzer (MacScope, Mitani corporation, Fukui, Japan), the area ratio of the collagen portion stained in bright green was determined as the degree of fibrogenesis.
The amout of tissue collagen was measured as follows according to the method of Shiba et al. (Shiba M, et al. Liver, 1998, Jun; 18(3): 196-204). That is, a part of the removed liver was homogenized with a 33-fold amount (ml/g) of 0.5M aqueous acetic acid solution in a Polytron PCU-2 homogenizer (Kinematica, Luzern, Switzerland). The homogenate was subjected to ultrasonication treatment for 2 min after freeze-thawing. After extraction with an acid, a fraction containing insoluble collagen was heated at 80° C. for 60 minutes to convert the insoluble collagen to water-soluble gelatin. The amount of gelatin was measured with a Sircol collagen assay kit (Biocolor, Belfast, Northern Ireland).
The amount of hydroxyproline was measured as follows. […] The amount of hydroxyproline was measured according to the method of Fujiwara et al. (Fujiwara et al., Anal. Biochem., 1987; 166: 72-8) with a high performance liquid chromatography system (SRL Inc., Tachikawa, Japan).

[2] = test system: Hepatic stellate cells (HSC); assay: Effect on production of collagen I in hepatic stellate cells (ELISA); assay type: cell-based, rat; settings: Y-27632 30 μM, DMEM without FCS, 48 hours of culture, n=4
Method: In the same manner as in Experimental Example 1, HSC were prepared from rat liver and cultured in DMEM medium containing 20% FCS for 8 days and changed to DMEM medium without FCS or DMEM medium containing Y-27632 (30 μM) but without FCS. After 48 hours of culture, the amount of collagen I contained in the supernatant was measured by ELISA (enzyme-linked immunosorbent assay) (Moshage H, et al., Hepatology 1990; 12: 511-518). As a result, the amount was 19.5±3.0 μg/μg DNA for the group without Y-27632 and 8.2±2.3 μg/μg DNA for the group with the addition of Y-27632, showing a significant low level for the group with the addition of Y-27632 (p<0.01, n=4).

[3] = test system: Hepatic stellate cells (HSC); assay: Effect on cell morphology of hepatic stellate cell; assay type: cell-based, rat; settings: Y-27632 30 μM, DMEM with 1% FCS, one hour, phase contrast microscope
Method: Hepatic stellate cells (HSC) were prepared from the liver of male Wistar rat according to the method of Friedman et al (Friedman S. L, et al., Proc Natl Acad Sci USA 1985; 82: 8681-8685). HSC were cultured in Dulbecco's modified Eagle's medium (DMEM) containing 20% fetal calf serum (FCS) and the cells after 3 to 8 passages were used. HSC to be subjected to the experiment were sown in a dish treated with fibronectin (10 μg/ml), cultured in DMEM medium containing 20% FCS for 24 hours and changed to DMEM medium containing 1% FCS or DMEM medium containing Y-27632 (30 μM) and 1% FCS. One hour later, HSC were fixed with a 3.7% formaldehyde solution and observed under a phase contrast microscope.

Question: Which results are given for `C[C@@H](N)[C@H]1CC[C@H](C(=O)Nc2ccncc2)CC1` [Compound Y-27632, (+)-trans-4-(1-aminoethyl)-1-(4-pyridylcarbamoyl)cyclohexane 2HCl·H2O]?
Answer: content of collagen in the tissue [1]: 601.3±67.7 μg/100 mg-rat liver weight; content of hydroxyproline in the tissue [1]: 29.8±9.1 μmol/g-rat liver weight; level of fibrogenesis (area ratio of collagen portion, Masson trichrome stain) [1]: 6.3±0.7%; amount of collagen I contained in the supernatant [2]: 8.2±2.3 μg/μg DNA; cell morphology of hepatic stellate cells [3]: spindle-like shape with dendroidal protrusions (non-active type)
